Patent US9987255B2, “5,5-bicyclic oxazole orexin receptor antagonists” (Merck Sharp & Dohme Corp., priority 2014, dated 2018)

Columns and labels:
hOX1R = hOX1R (Homo sapiens, UniProt O43613); experiment: FLIPR Ca2+ flux assay, orexin-1 receptor; format: cell-based; settings: CHO cells expressing the receptor; agonist 70 pM Ala-6,12 orexin-A
[1] = molecular target: human orexin-2 receptor (hOX2R) (Homo sapiens (Human), UniProt O43614); experiment: FLIPR Ca2+ flux assay, orexin-2 receptor; format: cell-based; settings: CHO cells expressing the receptor; agonist 70 pM Ala-6,12 orexin-A
Experimental: The utility of the compounds in accordance with the present invention as orexin receptor OX1R and/or OX2R antagonists may be readily determined without undue experimentation by methodology well known in the art, including the “FLIPR Ca^2+ Flux Assay” (Okumura et al., Biochem. Biophys. Res. Comm. 280:976-981, 2001). In a typical experiment the OX1 and OX2 receptor antagonistic activity of the compounds of the present invention was determined in accordance with the following experimental method. For intracellular calcium measurements, Chinese hamster ovary (CHO) cells expressing the rat orexin-1 receptor or the human orexin-2 receptor, are grown in Iscove's modified DMEM containing 2 mM L-glutamine, […], 1% hypoxanthine-thymidine supplement, 100 U/ml penicillin, 100 μg/ml streptomycin and 10% heat-inactivated fetal calf serum (FCS). The cells are seeded at 20,000 cells/well into Becton-Dickinson black 384-well clear bottom sterile plates coated with poly-D-lysine. All reagents were from GIBCO-Invitrogen Corp. The seeded plates are incubated overnight at 37° C. and 5% CO2. Ala-6,12 human orexin-A as the agonist is prepared as a 1 mM stock solution in 1% bovine serum albumin (BSA) and diluted in assay buffer (HBSS containing 20 mM HEPES, 0.1% BSA and 2.5 mM probenecid, pH7.4) for use in the assay at a final concentration of 70 pM. Test compounds are prepared as 10 mM stock solution in DMSO, then diluted in 384-well plates, first in DMSO, then assay buffer. On the day of the assay, cells are washed 3 times with 100 μl assay buffer and then incubated for 60 min (37° C., 5% CO2) in 60 μl assay buffer containing 1 μM Fluo-4AM ester, 0.02% pluronic acid, and 1% BSA. The dye loading solution is then aspirated and cells are washed 3 times with 100 μl assay buffer. 30 μl of that same buffer is left in each well. Within the Fluorescent Imaging Plate Reader (FLIPR, Molecular Devices), test compounds are added to the plate in a volume of 25 μl, incubated for 5 min and finally 25 μl of agonist is added. Fluorescence is measured for each well at 1 second intervals for 5 minutes and the height of each fluorescence peak is compared to the height of the fluorescence peak induced by 70 pM Ala-6,12 orexin-A with buffer in place of antagonist. For each antagonist, IC50 value (the concentration of compound needed to inhibit 50% of the agonist response) is determined. Alternatively, compound potency can be assessed by a radioligand binding assay (described in Bergman et. al. Bioorg. Med. Chem. Lett. 2008, 18, 1425-1430) in which the inhibition constant (Ki) is determined in membranes prepared from CHO cells expressing either the OX1 or OX2 receptor. The intrinsic orexin receptor antagonist activity of a compound which may be used in the present invention may be determined by these assays.

human orexin-2 receptor (hOX2R), sequence (O43614 whole entry): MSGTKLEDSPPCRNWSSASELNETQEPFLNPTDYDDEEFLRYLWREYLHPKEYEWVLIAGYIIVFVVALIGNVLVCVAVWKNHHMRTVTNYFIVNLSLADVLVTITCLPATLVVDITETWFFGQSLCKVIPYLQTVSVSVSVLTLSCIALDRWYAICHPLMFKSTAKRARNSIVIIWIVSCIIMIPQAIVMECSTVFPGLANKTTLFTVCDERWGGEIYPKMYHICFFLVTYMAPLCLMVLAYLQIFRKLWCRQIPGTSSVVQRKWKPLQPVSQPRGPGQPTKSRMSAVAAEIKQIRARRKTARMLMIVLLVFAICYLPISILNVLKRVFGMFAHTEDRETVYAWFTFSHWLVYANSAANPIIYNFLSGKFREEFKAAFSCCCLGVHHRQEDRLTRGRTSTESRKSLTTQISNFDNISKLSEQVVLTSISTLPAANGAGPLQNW

Row | SMILES | IC50 (hOX1R) | IC50 [1]
1 | Cc1oc(N2CC3CN(C(=O)c4ccccc4-n4nccn4)CC3C2)nc1C(C)(C)O (stereo not drawn) [Example 1, (2-(2H-1,2,3-triazol-2-yl)phenyl)(5-(4-(2-hydroxypropan-2-yl)-5-methyloxazol-2-yl)hexahydropyrrolo[3,4-c]pyrrol-2(1H)-yl)methanone] | 6.88 µM | 0.027 µM
2 | CCOc1ncccc1C(=O)N1CC2CN(c3nc(C(C)(C)O)c(C)o3)CC2C1 (stereo not drawn) [Example 2, 2-(2-{5-[(2-Ethoxypyridin-3-yl)carbonyl]hexahydropyrrolo[3,4-c]pyrrol-2(1H)-yl}-5-methyl-1,3-oxazol-4-yl)propan-2-ol] | > 10 µM | 0.545 µM
3 | Cc1oc(N2CC3CN(C(=O)c4cccnc4OCC(F)(F)F)CC3C2)nc1C(C)(C)O (stereo not drawn) [Example 3, 2-{5-methyl-2-[5-{[2-(2,2,2-trifluoroethoxy)pyridin-3-yl]carbonyl}hexahydropyrrolo [3,4-c]pyrrol-2(1H)-yl]-1,3-oxazol-4-yl}propan-2-ol] | > 10 µM | 0.106 µM
4 | Cc1oc(N2CC3CN(C(=O)c4ccccc4OC(F)(F)F)CC3C2)nc1C(C)(C)O (stereo not drawn) [Example 4, 2-{5-methyl-2-[5-{[2-(trifluoromethoxy)phenyl]carbonyl}hexahydropyrrolo[3,4-c]pyrrol-2(1H)-yl]-1,3-oxazol-4-yl} propan-2-ol] | > 10 µM | 0.604 µM
5 | Cc1oc(N2CC3CN(C(=O)c4ncccc4-c4ccccc4)CC3C2)nc1C(C)(C)O (stereo not drawn) [Example 5, 2-(5-methyl-2-{5-[(3-phenylpyridin-2-yl)carbonyl]hexahydropyrrolo[3,4-c]pyrrol-2(1H)-yl}-1,3-oxazol-4-yl) propan-2-ol] | > 10 µM | 0.583 µM
6 | CCCc1ccccc1C(=O)N1CC2CN(c3nc(C(C)(C)O)c(C)o3)CC2C1 (stereo not drawn) [Example 6, 2-(5-methyl-2-{5-[(2-propylphenyl)carbonyl]hexahydropyrrolo[3,4-c]pyrrol-2(1H)-yl}-1,3-oxazol-4-yl)propan-2-ol] | > 10 µM | 0.032 µM
7 | Cc1oc(N2CC3CN(C(=O)c4ccccc4OCC(F)(F)F)CC3C2)nc1C(C)(C)O (stereo not drawn) [Example 7, 2-{5-methyl-2-[5-{[2-(2,2,2-trifluoroethoxy)phenyl]carbonyl}hexahydropyrrolo[3,4-c]pyrrol-2(1H)-yl]-1,3-oxazol-4-yl} propan-2-ol] | > 10 µM | 0.165 µM
8 | Cc1oc(N2CC3CN(C(=O)c4cccnc4OC(C)C)CC3C2)nc1C(C)(C)O (stereo not drawn) [Example 8, 2-{5-methyl-2-[5-{[2-(1-methylethoxy)pyriddin-3-yl]carbonyl}hexahydropyrrolo [3,4-c]pyrrol-2(1H)-yl]-1,3-oxazol-4-yl}propan-2-ol] | > 10 µM | 0.126 µM
9 | Cc1oc(N2CC3CN(C(=O)c4cccnc4OCC(F)F)CC3C2)nc1C(C)(C)O (stereo not drawn) [Example 9, 2-{2-[5-{[2-(2,2-difluoroethoxy)pyridin-3-yl]carbonyl}hexahydropyrrolo [3,4-c]pyrrol-2(1H)-yl]-5-methyl-1,3-oxazol-4-yl} propan-2-ol] | > 10 µM | 0.312 µM
10 | Cc1oc(N2CC3CN(C(=O)c4cccnc4CC(F)(F)F)CC3C2)nc1C(C)(C)O (stereo not drawn) [Example 10] | > 10 µM | 0.046 µM
11 | Cc1oc(N2CC3CN(C(=O)c4ccccc4C4CC4)CC3C2)nc1C(C)(C)O (stereo not drawn) [Example 11, 2-(2-{5-[(2-cyclopropylphenyl)carbonyl]hexahydropyrrolo[3,4-c]pyrrol-2(1H)-yl}-5-methyl-1,3-oxazol-4-yl)propan-2-ol] | > 10 µM | 0.087 µM
12 | Cc1oc(N2CC3CN(C(=O)c4ccccc4C4CCC4)CC3C2)nc1C(C)(C)O (stereo not drawn) [Example 12, 2-(2-{5-[(2-cyclobutylphenyl)carbonyl]hexahydropyrrolo[3,4-c]pyrrol-2(1H)-yl}-5-methyl-1,3-oxazol-4-yl)propan-2-ol] | 5.3 µM | 0.023 µM
13 | Cc1oc(N2CC3CN(C(=O)c4ccccc4N4CCCC4)CC3C2)nc1C(C)(C)O (stereo not drawn) [Example 13, 2-(5-methyl-2-{5-[(2-pyrrolidin-1-ylphenyl)carbonyl]hexahydropyrrolo [3,4-c]pyrrol-2(1H)-yl}-1,3-oxazol-4-yl)propan-2-ol] | > 10 µM | 0.049 µM
14 | Cc1oc(N2CC3CN(C(=O)c4ccccc4-n4cccn4)CC3C2)nc1C(C)(C)O (stereo not drawn) [Example 14, 2-{5-methyl-2-[5-{(2-(1H-pyrazol-1-yl)phenyl]carbonyl}hexahydropyrrolo [3,4-c]pyrrol-2(1H)-yl]-1,3-oxazol-4-yl}propan-2-ol] | > 10 µM | 0.072 µM
15 | Cc1oc(N2CC3CN(C(=O)c4ccccc4-n4ncnn4)CC3C2)nc1C(C)(C)O (stereo not drawn) [Example 15, 2-{5-methyl-2-[5-{[2-(2H-tetrazol-2-yl)phenyl]carbonyl}hexahydropyrrolo [3,4-c]pyrrol-2(1H)-yl]-1,3-oxazol-4-yl}propan-2-ol] | > 10 µM | 0.065 µM
16 | Cc1oc(N2CC3CN(C(=O)c4ccc(F)cc4-n4nccn4)CC3C2)nc1C(C)(C)O (stereo not drawn) [Example 16, 2-{2-[5-{[4-fluoro-2-(2H-1,2,3-triazol-2-yl)phenyl]carbonyl}hexahydropyrrolo [3,4-c]pyrrol-2(1H)-yl]-5-methyl-1,3-oxazol-4-yl}propan-2-ol] | 3.07 µM | 0.032 µM
17 | Cc1oc(N2CC3CN(C(=O)c4ncccc4-n4nccn4)CC3C2)nc1C(C)(C)O (stereo not drawn) [Example 17, 2-{5-methyl-2-[5-{(3-(2H-1,2,3-triazol-2-yl)pyridin-2-yl]carbonyl}hexahydropyrrolo[3,4-c]pyrrol-2(1H)-yl]-1,3-oxazol-4-yl}propan-2-ol] | > 10 µM | 0.084 µM
18 | Cc1oc(N2CC3CN(C(=O)c4cccnc4-n4cccn4)CC3C2)nc1C(C)(C)O (stereo not drawn) [Example 18, 2-{5-methyl-2-[5-{[2-(1H-pyrazol-1-yl)pyridin-3-yl]carbonyl}hexahydropyrrolo [3,4-c]pyrrol-2(1H)-yl]-1,3-oxazol-4-yl}propan-2-ol] | 9.85 µM | 0.035 µM
19 | Cc1oc(N2CC3CN(C(=O)c4cccnc4-c4ccccc4)CC3C2)nc1C(C)(C)O (stereo not drawn) [Example 19, 2-(5-methyl-2-{5-[(2-phenylpyridin-3-yl)carbonyl]hexahydropyrrolo [3,4-c]pyrrol-2(1H)-yl}-1,3-oxazol-4-yl)propan-2-ol] | > 10 µM | 0.06 µM
20 | Cc1oc(N2CC3CN(C(=O)c4nccnc4N4CCCC4)CC3C2)nc1C(C)(C)O (stereo not drawn) [Example 20, 2-(5-methyl-2-{5-[(3-pyrrolidin-1-ylpyrazin-2-yl)carbonyl]hexahydropyrrolo[3,4-c]pyrrol-2(1H)-yl}-1,3-oxazol-4-yl) propan-2-ol] | > 10 µM | 0.252 µM
21 | Cc1oc(N2CC3CN(C(=O)c4nccnc4-n4cccn4)CC3C2)nc1C(C)(C)O (stereo not drawn) [Example 21, 2-{5-methyl-2-[5-{[3-(1H-pyrazol-1-yl)pyrazin-2-yl]carbonyl}hexahydropyrrolo[3,4-c]pyrrol-2(1H)-yl]-1,3-oxazol-4-yl} propan-2-ol] | > 10 µM | 0.112 µM
22 | Cc1oc(N2CC3CN(C(=O)c4ccccc4OC(F)F)CC3C2)nc1C(C)(C)O (stereo not drawn) [Example 22, 2-{2-[5-{[2-(difluoromethoxy)phenyl]carbonyl}hexahydropyrrolo[3,4-c]pyrrol-2(1H)-yl]-5-methyl-1,3-oxazol-4-yl} propan-2-ol] | > 10 µM | 0.101 µM
23 | Cc1oc(N2CC3CN(C(=O)c4ccccc4CC(F)(F)F)CC3C2)nc1C(C)(C)O (stereo not drawn) [Example 23, 2-{5-methyl-2-[5-{(2-(2,2,2-trifluoroethyl)phenyl]carbonyl}hexahydropyrrolo[3,4-c]pyrrol-2(1H)-yl]-1,3-oxazol-4-yl} propan-2-ol] | > 10 µM | 0.23 µM
24 | Cc1oc(N2CC3CN(C(=O)c4ccccc4C4CC4(F)F)CC3C2)nc1C(C)(C)O (stereo not drawn) [Example 24, 2-{2-[5-{[2-(2,2-difluorocyclopropyl)phenyl]carbonyl}hexahydropyrrolo[3,4-c]pyrrol-2(1H)-yl]-5-methyl-1,3-oxazol-4-yl}propan-2-ol] | > 10 µM | 0.022 µM
